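Step 1: Grow cells in 96-well plates. Step 2: Expose to compound for 48 hours at 5 concentrations. Step 3: Interpolate endpoints linearly; if unreached, use highest concentration. Abbreviation: GI50, concentration required for 50% inhibition of growth.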 Active and inactive are the calls of the source. Rule as the data show it: active = GI50 up to about 1.1 µM and inactive = higher.

Test systems include OVCAR-4; MCF7; SK-MEL-28; U-251; SK-MEL-5; BT-549; SW-620; LOX IMVI; Malme-3M; HOP-92; HOP-62; M14; UO-31; EKVX; ACHN; UACC-62; HCC 2998; SK-MEL-2; SNB-19.
Common to all, as to assay: inhibition of tumour cell growth, NCI panel, 48 h

With `CCOC(=O)c1cc2c(OC(C)=O)ccc(OC(C)=O)c2s1`, the GI50 with OVCAR-4 is 4.75 µM (inactive); in the test on MCF7, 3.03 µM (inactive); in the test with SK-MEL-28, 2.15 µM (inactive); in the test with U-251, 2.97 µM (inactive); in the test on SK-MEL-5, 2.29 µM (inactive); in the test on BT-549, 2.13 µM (inactive). The GI50 in the test with SW-620 was 2.1 µM (inactive); in the test on LOX IMVI it was 0.891 µM (active); in the test with Malme-3M it was 1.93 µM (inactive); with HOP-92, 1.44 µM (inactive); in the test with HOP-62, 10.3 µM (inactive); with M14, 1.77 µM (inactive). In addition, the GI50 with UO-31 was 1.43 µM (inactive); in the test with EKVX, 2.82 µM (inactive); in the test on ACHN, 1.61 µM (inactive); in the test with UACC-62, 1.82 µM (inactive); with HCC 2998 it was 8.97 µM (inactive); with SK-MEL-2 it was 2.62 µM (inactive). The GI50 in the test with SNB-19 is 7.03 µM (inactive).
With `CN(C)c1cccc(-c2cc(=S)c3cc4c(cc3[nH]2)OCO4)c1`, the GI50 in the test on OVCAR-4 was > 100 µM (inactive); in the test with MCF7, 4.94 µM (inactive); in the test with SK-MEL-28 it was > 100 µM (inactive); in the test with U-251, > 20.7 µM (inactive); with SK-MEL-5, 3.4 µM (inactive); in the test with BT-549, > 100 µM (inactive). The GI50 in the test on SW-620 is 5.15 µM (inactive); in the test with LOX IMVI it was 7.73 µM (inactive); with Malme-3M, 8.28 µM (inactive); in the test with HOP-92, > 100 µM (inactive); with HOP-62, > 27.5 µM (inactive); in the test on M14, 5.28 µM (inactive). Further, the GI50 was 18.4 µM (inactive) with UO-31; 7.62 µM (inactive) with EKVX; 7.93 µM (inactive) in the test with ACHN; 6.27 µM (inactive) in the test with UACC-62; 7.89 µM (inactive) in the test with HCC 2998; 24.4 µM (inactive) in the test with SK-MEL-2. Moreover, in the test with SNB-19, the GI50 is 4.7 µM (inactive).
`CC(=O)NC(CS/N=N/c1[nH]cnc1C(N)=O)C(=O)O` (configuration not stated): the GI50 in the test on OVCAR-4 is 3.31 µM (inactive); with MCF7 it was > 46.8 µM (inactive); in the test with SK-MEL-28 it was > 100 µM (inactive); in the test on U-251, > 64.9 µM (inactive); in the test with SK-MEL-5, 27 µM (inactive); in the test with BT-549 it was 53 µM (inactive). Moreover, the GI50 with SW-620 was 6.15 µM (inactive); with LOX IMVI, 0.343 µM (active); with Malme-3M, 2.16 µM (inactive); in the test with HOP-92, 6.93 µM (inactive); with HOP-62, 35.9 µM (inactive); with M14, 2.59 µM (inactive). Besides, the GI50 with UO-31 is 2.82 µM (inactive); in the test on EKVX it was 54.5 µM (inactive); with ACHN it was 6.27 µM (inactive); with UACC-62, 4.21 µM (inactive); with HCC 2998 it was 4.41 µM (inactive); in the test with SK-MEL-2, 2.42 µM (inactive). Besides, the GI50 in the test with SNB-19 is > 100 µM (inactive).
Turning to `CCCCCCCCCCCCCCCCNc1nc(=O)n(C2CC(O)C(CO)O2)cc1F` (configuration not stated), the GI50 in the test with OVCAR-4 was 15.7 µM (inactive); in the test with MCF7, 1.33 µM (inactive); with SK-MEL-28, 12.7 µM (inactive); with U-251 it was 11.7 µM (inactive); in the test on SK-MEL-5 it was 11.6 µM (inactive); in the test with BT-549, 16.3 µM (inactive). Besides, the GI50 with SW-620 is 13 µM (inactive); in the test with LOX IMVI it was 10.5 µM (inactive); in the test with Malme-3M, 10.8 µM (inactive); in the test on HOP-92, 10.3 µM (inactive); with HOP-62, 7.52 µM (inactive); with M14 it was 8.57 µM (inactive). In addition, the GI50 was 1.4 µM (inactive) with UO-31; 14.6 µM (inactive) in the test on EKVX; 0.259 µM (active) with ACHN; 10.7 µM (inactive) in the test with UACC-62; 0.071 µM (active) in the test with HCC 2998; 19.6 µM (inactive) in the test with SK-MEL-2. Further, the GI50 in the test with SNB-19 is 13.7 µM (inactive).
`c1ccc(Nc2nn3c(CCCCCCCCc4nnc5sc(Nc6ccccc6)nn45)nnc3s2)cc1`: the GI50 in the test on OVCAR-4 is 21.8 µM (inactive); in the test on MCF7, 26.4 µM (inactive); with SK-MEL-28, 27.6 µM (inactive); in the test with U-251, 35.2 µM (inactive); in the test with SK-MEL-5 it was 12.2 µM (inactive); in the test with BT-549, 31.5 µM (inactive). In addition, the GI50 with SW-620 was 29.2 µM (inactive); with LOX IMVI, 22.1 µM (inactive); in the test with Malme-3M, 37.1 µM (inactive); with HOP-92, 22.9 µM (inactive); in the test with HOP-62 it was 38.5 µM (inactive); in the test on M14 it was 16.5 µM (inactive). The GI50 in the test with UO-31 is 22.1 µM (inactive); with EKVX, 23.3 µM (inactive); with ACHN it was 35.8 µM (inactive); with UACC-62 it was 34.6 µM (inactive); in the test on HCC 2998 it was 60.8 µM (inactive); in the test on SK-MEL-2, 29.4 µM (inactive). For the same compound, the GI50 in the test with SNB-19 was 26 µM (inactive).
Turning to `C#C[C@]1(O)[C@@H](CO)O[C@@H](n2ccc(N)nc2=O)[C@@H]1O`, the GI50 is 0.18 µM (active) in the test with OVCAR-4; < 0.01 µM (active) in the test on MCF7; 0.0728 µM (active) in the test on SK-MEL-28; 0.0263 µM (active) in the test on U-251; 0.0139 µM (active) in the test on SK-MEL-5; 0.0834 µM (active) in the test on BT-549. Besides, the GI50 with SW-620 was < 0.01 µM (active); in the test on LOX IMVI it was < 0.01 µM (active); with Malme-3M it was 0.0337 µM (active); in the test with HOP-92, 0.11 µM (active); in the test on M14, 0.107 µM (active); in the test with UO-31, 0.0119 µM (active). Further, the GI50 in the test with EKVX was 0.173 µM (active); with ACHN, < 0.01 µM (active); in the test on UACC-62, 0.0352 µM (active); with HCC 2998 it was < 0.0135 µM (active); in the test on SK-MEL-2, 0.0435 µM (active); in the test on SNB-19, 0.0706 µM (active).
As to `c1ccc2[nH]c3nc4ccccc4c-3cc2c1`, the GI50 in the test on OVCAR-4 was 1.03 µM (active); in the test on MCF7 it was 0.304 µM (active); with SK-MEL-28 it was 1.31 µM (inactive); in the test on U-251, 0.454 µM (active); in the test on SK-MEL-5, 0.698 µM (active); with BT-549 it was 0.512 µM (active). Also, the GI50 was 0.156 µM (active) with SW-620; 0.18 µM (active) with LOX IMVI; 0.92 µM (active) with Malme-3M; 7.26 µM (inactive) in the test on HOP-92; 0.536 µM (active) with M14; 0.597 µM (active) in the test on UO-31. Also, the GI50 was 0.395 µM (active) with EKVX; 0.113 µM (active) with ACHN; 0.632 µM (active) in the test on UACC-62; 0.757 µM (active) in the test on HCC 2998; 0.445 µM (active) in the test on SK-MEL-2; 0.785 µM (active) in the test on SNB-19.
Regarding `CC(C)(C)C(=O)O[C@H]1C=C[C@@H](O)[C@@H]2[C@H]1[C@@H]1C=C[C@H]2C1`, the GI50 in the test on OVCAR-4 was 21.2 µM (inactive); in the test with MCF7 it was 7.18 µM (inactive); in the test on SK-MEL-28 it was 18.5 µM (inactive); in the test on U-251, 28.8 µM (inactive); with BT-549, 3.87 µM (inactive); in the test with SW-620, 42.7 µM (inactive). The GI50 in the test with LOX IMVI was 21.4 µM (inactive); in the test with Malme-3M, > 10 µM (inactive); with HOP-92, 22.2 µM (inactive); in the test on M14, 13.7 µM (inactive); in the test with UO-31, 47.9 µM (inactive); with EKVX, 6.01 µM (inactive). Further, the GI50 was 45.4 µM (inactive) with ACHN; 9.79 µM (inactive) in the test on UACC-62; 14.9 µM (inactive) with HCC 2998; 13 µM (inactive) with SK-MEL-2; 70 µM (inactive) in the test on SNB-19.
Turning to `CNc1ccc(C(=O)CC(O)CCC(C)C2OC(=O)CC(O)CC(=O)CC(O)CC(O)CC(O)CC(O)CC3(O)CC(O)C(C(=O)NCCN(C)C)C(CC(OC4OC(C)C(O)C(NC(=O)CN5CCN(C)CC5)C4O)\C=C/C=C\C=C/C=C/C=C/C=C\C=C/C2C)O3)cc1` (configuration not stated), the GI50 in the test with OVCAR-4 was 14 µM (inactive); in the test on MCF7, 2.36 µM (inactive); in the test on SK-MEL-28, 9.27 µM (inactive); in the test on U-251 it was 4.86 µM (inactive); with SK-MEL-5, 2.81 µM (inactive); in the test with BT-549, 11.2 µM (inactive). For the same compound, the GI50 is 3.66 µM (inactive) in the test on SW-620; 2.92 µM (inactive) in the test on LOX IMVI; 2.28 µM (inactive) in the test with Malme-3M; > 100 µM (inactive) with HOP-92; 25.6 µM (inactive) with HOP-62; 30.8 µM (inactive) with M14. The GI50 was 4.34 µM (inactive) in the test with UO-31; 2.84 µM (inactive) in the test on ACHN; 46.2 µM (inactive) with UACC-62; 2.55 µM (inactive) with HCC 2998; 6.22 µM (inactive) with SK-MEL-2; 3.38 µM (inactive) in the test on SNB-19.
As for `COc1ccc(/C=C2\C[C@H]3[C@@H]4CC=C5C[C@@H](OC(C)=O)CC[C@]5(C)[C@H]4CC[C@]3(C)\C2=N\O)cc1OC`, the GI50 was 11.4 µM (inactive) with OVCAR-4; 6.3 µM (inactive) in the test with MCF7; > 100 µM (inactive) in the test on SK-MEL-28; 2.71 µM (inactive) in the test with SK-MEL-5; > 100 µM (inactive) in the test on BT-549; 84.9 µM (inactive) with SW-620. Moreover, the GI50 is 13.3 µM (inactive) in the test on LOX IMVI; 53 µM (inactive) in the test with Malme-3M; 3.89 µM (inactive) with HOP-92; 31.7 µM (inactive) with HOP-62; 14.7 µM (inactive) in the test with M14; 4.2 µM (inactive) with UO-31. Also, the GI50 is 3.01 µM (inactive) with EKVX; 8 µM (inactive) with ACHN; 30.5 µM (inactive) in the test on UACC-62; 16.2 µM (inactive) with HCC 2998; 20.8 µM (inactive) in the test with SK-MEL-2; 25 µM (inactive) in the test on SNB-19.
Turning to `COc1ccc(-n2sc3ncc(-c4ccccc4)cc3c2=O)cc1`, the GI50 in the test with OVCAR-4 was 23.3 µM (inactive); in the test on MCF7 it was 28.6 µM (inactive); in the test on SK-MEL-28 it was 37 µM (inactive); in the test with U-251, 27.6 µM (inactive); in the test with SK-MEL-5, 55.2 µM (inactive); with BT-549, 94 µM (inactive). Also, the GI50 was 30.7 µM (inactive) in the test with SW-620; 32.1 µM (inactive) with LOX IMVI; 42.5 µM (inactive) with HOP-92; > 100 µM (inactive) in the test with HOP-62; 80 µM (inactive) in the test on M14; 21.7 µM (inactive) in the test with UO-31. In addition, the GI50 in the test with EKVX was 69.5 µM (inactive); with ACHN, 21.6 µM (inactive); in the test with UACC-62, 31 µM (inactive); with HCC 2998, 92.7 µM (inactive); in the test with SK-MEL-2, > 100 µM (inactive); with SNB-19, 29.4 µM (inactive).

The values are drawn from ChEMBL document CHEMBL1201862, “PubChem BioAssay data set” (2004).
